Experimental data published in US7544666B2, “NAP derivatives” (Industrial Technology Research Institute, priority 2005, dated 2009).

Assays:
[1] = Stability in Hanks' balanced salt solution (HBSS); type: physicochemical; details: 37° C., relative to initial conc. in HBSS = 100.00
Protocol: (§1) The stability of the NAP derivatives prepared by EXAMPLE 1 was measured with the system of human colon cancer cell, Caco-2 cell. Caco-2 cells (1×10^5 cells) were first seeded into a polycarbonate film on the upper layer of a 12-well Transwell and incubated for 18 to 26 days at 37° C. The TEER of the Caco-2 cell monolayer was measured over 350 Ω×cm^2. The stability of the NAP derivatives in the Hanks' balanced salt solutions (HBSS) was measured by the concentration changes of NAP and the NAP derivatives incubated in the HBSS at 37° C. for 4 hours. The stability of the NAP derivatives in the Caco-2 cell system was measured by the procedure described below. NAP and the NAP derivatives in the HBSS were added into the upper layer of the Caco-2 cell-seeded Transwell. After 4-hour incubation, the concentration of NAP and the NAP derivatives in the upper and lower layers was measured and analyzed in comparison with the initial concentration (500 μM) by reverse HPLC at 210 nm.

[2] = test system: Caco-2 cell; assay: Stability in the Caco-2 cell system; type: in vitro ADME, human; details: 4-hour incubation in Caco-2 Transwell; relative to initial conc. = 100.00 (500 μM)
Protocol: as §1

[3] = test system: Caco-2 cell monolayer; assay: Permeation to Caco-2 cell monolayer; type: in vitro ADME, human; design: unit not given here; details: 4-hour incubation, initial concentration 500 μM in upper layer
Protocol: The permeation of NAP and the NAP derivatives was examined using the Caco-2 cell system. Caco-2 cells (1×10^5 cells) were seeded into the polycarbonate film on the upper layer of a 12-well Transwell and incubated at 37° C. for 18 to 26 days. The TEER of the Caco cell monolayer was measured over 350 Ω×cm^2. NAP and the NAP derivatives in the HBSS were added into the upper layer of the Caco-2 cell-seeded Transwell. After 4-hour incubation, the concentration of NAP and the NAP derivatives in the upper and lower layers was measured and analyzed in comparison with the initial concentration (500 μM) by reverse phase HPLC at 210 nm.

[4] = Pharmacokinetics after single subcutaneous dose in rats; type: in vivo; details: rat, 1 mg/kg subcutaneous
Protocol: A single dosage of NAP and the NAP derivative of BMEC-NAP0706 were subcutaneously administered to rats respectively, and blood samples were obtained at different time intervals. The blood samples were subjected to LC-MS/MS analysis to measure the concentration of NAP and the NAP derivative. A time-plasma concentration relationship was established and pharmacokinetic parameters were calculated. The procedures are described below.
Long Evans rats with body weight between 220 to 240 g were obtained from the National Laboratory Animal Center, Taiwan and caged in the laboratory animal housing in the Industrial Technology Research Institute, Taiwan. The Breeding procedure follows the “Guide for the Care and Use of Laboratory Animals” established by the Chinese Society of Laboratory Animal Sciences. The rats were kept on an alternating 12-hour light and 12-hour dark schedule with sufficient feed and water until they reached the body weight between 280 to 300 g.
Each rat was weighed before the pharmacokinetic examination to estimate its own dosage. The tested drug dissolved in PBS was formulated to achieve the amount of one dosage between 0.28 to 0.32 mL. Each rat was subcutaneously administered with 1 mg/kg of the tested drug. 0.3 mL of blood samples were collected from the saphenous vein in medial thigh of the rat before and 0.25-, 0.5-, 0.75-, 1-, 2-, 4-, 24-hour after administration. Whole blood was centrifuged under 3500 rpm for 10 min and supernatant (serum) was moved to a clean 1.5 mL eppendorf and stored at −80° C.
Sample pretreatment was as follows: The frozen serum was thawed in an ice bath. One hundred μL of the serum was moved to a clean 1.5 mL eppendorf and 10 μL of internal standard material was added. The mixture was added with 200 μL ACN and mixed again. The sample was centrifuged under 14000 rpm at 4° C. for 10 min, and the supernatant was moved to the other clean eppendorf and dried in a vacuum system at 60° C. for 30 min. The dried sample was dissolved in 900 μL ddH2O. The sample was added to a solid phase extraction column previously activated with methanol and ddH2O. After the sample passed through, the extraction column was washed with ddH2O alone and then ddH2O containing 5% ACN and 0.1% TFA. The sample was dissolved from the extraction column with ACN containing 0.1% TFA and dried under a vacuum system at 60° C. for 1 hour. The dried sample was redissolved with 100 μL of ddH2O containing 50% ACN. The sample was analyzed with HPLC-MS/MS system.
The sample analysis was as described below. 20 μL of the sample was poured into the HPLC-MS/MS system. The solvent system was applied in gradient partitioning: 90% A (H2O/ACN=98/2, 0.1% F.A.) and 10% B (H2O/ACN=20/80, 0.1% F.A.) at 0-3 min; 10% A and 90% B at 3-6.5 min; 90% A and 10% B again at 6.5-15 min. The flow rate was 0.2 mL/min. The column was ZORBAX C18, 5 μm, 2.1×50 mm (Agilent) and the detector was ABI 4000 Q Trap. Each sample was analyzed for 15 min. The results were compared with the standard calibration curve to estimate the concentration of each sample. All data was statistically analyzed with Excel or WinNonlin.

| Molecule | Conc. after 4-hour in HBSS [1] | Conc. after 4-hour in Caco-2 cells [2] | Conc. at the lover layer [3] | also measured |
| --- | --- | --- | --- | --- |
| CC[C@H](C)[C@H](NC(=O)[C@H](CO)NC(=O)[C@@H](NC(=O)[C@@H]1CCCN1C(=O)[C@H](C)NC(=O)[C@H](CC(N)=O)NC(=O)OCC(C)C)C(C)C)C(=O)N1CCC[C@H]1C(=O)N[C@@H](CCC(N)=O)C(=O)O [BMEC-NAP0401, iBu-OCO-NAPVSIPQ-OH] | 100.02 | 52.63 | 0.24 |  |
| CC[C@H](C)[C@H](NC(=O)[C@H](CO)NC(=O)[C@@H](NC(=O)[C@@H]1CCCN1C(=O)[C@H](C)NC(=O)[C@H](CC(N)=O)NC(=O)c1cccc2ccccc12)C(C)C)C(=O)N1CCC[C@H]1C(=O)N[C@@H](CCC(N)=O)C(N)=O [BMEC-NAP0802, α-Naphthoyl-NAPVSIPQ-NH2] | 100.00 | 88.68 | 0.34 |  |
| Adipyl-NAPVSIPQ-NH2 [BMEC-NAP0202] | 98.38 | 95.59 | 0.82 |  |
| CC[C@H](C)[C@H](NC(=O)[C@H](CO)NC(=O)[C@@H](NC(=O)[C@@H]1CCCN1C(=O)[C@H](C)NC(=O)[C@H](CC(N)=O)NC(=O)c1cccs1)C(C)C)C(=O)N1CCC[C@H]1C(=O)N[C@@H](CCC(N)=O)C(=O)O [BMEC-NAP0704, 2-Thiophenecarbonyl-NAPVSIPQ-OH] | 99.88 | 73.69 | 0.24 |  |
| CC[C@H](C)[C@H](NC(=O)[C@H](CO)NC(=O)[C@@H](NC(=O)[C@@H]1CCCN1C(=O)[C@H](C)NC(=O)[C@H](CC(N)=O)NC(=O)OCc1ccccc1)C(C)C)C(=O)N1CCC[C@H]1C(=O)N[C@@H](CCC(N)=O)C(N)=O [BMEC-NAP0805, Cbz-NAPVSIPQ-NH2] | 98.58 | 89.54 | 0.27 |  |
| CC[C@H](C)[C@H](NC(=O)[C@H](CO)NC(=O)[C@@H](NC(=O)[C@@H]1CCCN1C(=O)[C@H](C)NC(=O)[C@H](CC(N)=O)NC(=O)c1cccc2ccccc12)C(C)C)C(=O)N1CCC[C@H]1C(=O)N[C@@H](CCC(N)=O)C(=O)O [BMEC-NAP0702, α-Naphthoyl-NAPVSIPQ-OH] | 96.55 | 61.61 | 0.27 |  |
| CCCCCCCCOC(=O)N[C@@H](CC(N)=O)C(=O)N[C@@H](C)C(=O)N1CCC[C@H]1C(=O)N[C@H](C(=O)N[C@@H](CO)C(=O)N[C@H](C(=O)N1CCC[C@H]1C(=O)N[C@@H](CCC(N)=O)C(N)=O)[C@@H](C)CC)C(C)C [BMEC-NAP0505, nOct-OCO-NAPVSIPQ-NH2] | 93.41 | 76.83 | 0.65 |  |
| CCCC(=O)N[C@@H](CC(N)=O)C(=O)N[C@@H](C)C(=O)N1CCC[C@H]1C(=O)N[C@H](C(=O)N[C@@H](CO)C(=O)N[C@H](C(=O)N1CCC[C@H]1C(=O)N[C@@H](CCC(N)=O)C(N)=O)[C@@H](C)CC)C(C)C [BMEC-NAP0201, Butyryl-NAPVSIPQ-NH2] | 100.39 | 94.18 | 0.12 |  |
| CC[C@H](C)[C@H](NC(=O)[C@H](CO)NC(=O)[C@@H](NC(=O)[C@@H]1CCCN1C(=O)[C@H](C)NC(=O)[C@H](CC(N)=O)NC(=O)c1cccs1)C(C)C)C(=O)N1CCC[C@H]1C(=O)N[C@@H](CCC(N)=O)C(N)=O [BMEC-NAP0804, 2-Thiophenecarbonyl-NAPVSIPQ-NH2] | 98.62 | 92.09 | 0.31 |  |
| CC[C@H](C)[C@H](NC(=O)[C@H](CO)NC(=O)[C@@H](NC(=O)[C@@H]1CCCN1C(=O)[C@H](C)NC(=O)[C@H](CC(N)=O)NC(=O)OCC1c2ccccc2-c2ccccc21)C(C)C)C(=O)N1CCC[C@H]1C(=O)N[C@@H](CCC(N)=O)C(=O)O [BMEC-NAP0706, Fmoc-NAPVSIPQ-OH] | 99.78 | 67.14 | 0.57 | AUC ([4]; in vivo, sc): 104 ng·h/mL; Cmax ([4]; in vivo, sc): 101 ng/mL; Tmax ([4]; in vivo, sc): 45 min; half-life ([4]; in vivo, sc, read-out: T½ (converted)): 54.6 min; AUC relative to NAP [4]: twice that of NAP; TNAP-max [4]: 0.25 h; maximum plasma concentration relative to NAP [4]: twice that of NAP; time required to reach the highest concentration [4]: 0.25 h |
| H-NAPVSIPN-OH [BMEC-NAP0603, H-NAPVSIPN-OH] | 101.90 | 29.17 | 0.04 |  |
| CCCCCCOC(=O)N[C@@H](CC(N)=O)C(=O)N[C@@H](C)C(=O)N1CCC[C@H]1C(=O)N[C@H](C(=O)N[C@@H](CO)C(=O)N[C@H](C(=O)N1CCC[C@H]1C(=O)N[C@@H](CCC(N)=O)C(=O)O)[C@@H](C)CC)C(C)C [BMEC-NAP0404, nHex-OCO-NAPVSIPQ-OH] | 99.16 | 29.87 | 2.00 |  |
| CC[C@H](C)[C@H](NC(=O)[C@H](CO)NC(=O)[C@@H](NC(=O)[C@@H]1CCCN1C(=O)[C@H](C)NC(=O)[C@H](CC(N)=O)NC(=O)OCC(C)C)C(C)C)C(=O)N1CCC[C@H]1C(=O)N[C@@H](CCC(N)=O)C(N)=O [BMEC-NAP0501, iBu-OCO-NAPVSIPQ-NH2] | 100.17 | 87.00 | 0.76 |  |
